# According to patent US6869974B1, “Pharmaceutical compounds” (Nicox S.A., priority 1999, dated 2005):
# “Also recorded” adds a separate entry of the source.
# Experiments:
# in vivo = conditions: rat, in vivo
# Method: (§1) The animals (rats) are distributed in the following groups (no. 10 animals for group):
# (§2) • 1° group: treatment: only carrier (aqueous suspension 1% w/v of carboxyymethylcellulose, dose: 5 ml/Kg when the drug is administered by os, or a physiologic solution when parenterally administered, i.e. by subcutaneous, intraperitoneal, ir-ravenous or intermuscular route), • 2° group: treatment: carrier as above defined+NEM, B) Groups treated with the drug: • group I: treatment: carrier+drug, • gruppo II: treatment: carrier+drug+NEM.
# (§3) The administration routes are those known for the drug, and can be the oral or subcutaneous, intraperitoneal, intravenous or intramuscular route.
# (§4) The animals are sacrificed after 24 hours and then one proceeds to the evaluation of the damage to the gastrointestinal mucosa.
# (§5) Test 1—experimental model in vivo with N-ethylmaleimide (NEM): study of the gastric tolerability of some drugs screened as precursors of the compounds of the invention.
# (§6) The animals (rats, weight about 200 g) are distributed in the following groups (No. 10 animals for group):
# (§7) • 1° group: treatment: only carrier (aqueous suspension 1% w/v of carboxymethylcellulose, dose: 5 ml/Kg when the drug is administered by os, physiologic solution when by parenteral route), • 20 group: treatment: carrier+NEM, B) Groups administered with each drug: • group I: treatment: carrier+drug, • group II: treatment: carrier+drug+NEM.
# (§8) The drug is administered one hour later, in suspension in the carrier. Animals are sacrificed after 24 hours and evaluation of the damage to the gastrointestinal mucosa is made by counting the number of rats, inside each group, with lesions to the stomach at a visual inspection. The total number of said rats is then divided by the total number of rats of the group and multiplied by 100.
# [1] = tested on: Human endothelial cells of the umbilical vein; assay: Test 2 (CIP): apoptosis (DNA fragmentation) induced by cumene hydroperoxide in endothelial cells; format: cell-based; conditions: for activity at 100 µM: Homo sapiens, Endothelial cell, 1 h, read-out: Apoptosis % with respect to the controls treated only with CIP; for inhibition of apoptosis induced by CIP (in words, significance p<0.01): CIP 5 mM
# Method: Test 2 (CIP): Protection parameter of endothelial cell against the oxidative stress induced by cumene hydroperoxide (CIP).
# Human endothelial cells of the umbilical vein are prepared according to an usual standard procedure. Fresh umbilical veins are filled with a 0.1% by weight collagenase solution and incubated at 37° C. for 5 minutes.
# The cells are collected from the perfusate by centrifugation and harvested in culture flasks T-75, pretreated with human fibronectin. The cells are then harvested in the same medium, further added with 10 ng/ml of bovine hypothalamic growth factor. When the cells of the primary cell culture (i.e. that directly obtained from ex-vivo) form a single layer of confluent cells (about 8,000,000 cells/flask), the culture is stopped and the layers washed and trypsinized. The cellular suspensions are transferred into the wells of a cell culture plate having 24 wells, half of which is then additioned with the same culture medium containing the drug at a 10^−4M concentration, and harvested in a thermostat at 37° C. at a constant moisture. Only the cells coming from said first sub-cultures are used for the experiments with cumene hydroperoxide (CIP).
# Before starting the test, the cellular culture medium is removed and the cellular layers are carefully washed with a physiologic solution at a temperature of 37° C. The wells of the culture plate are then incubated for one hour with CIP at a 5 mM concentration in the culture medium. […] 5 replicates for each sample are carried out.
# Human endothelial cells of the umbilical vein are prepared according to a standard method. Fresh umbilical veins are filled with a collagenase solution 0.1% by weight and incubated at 37° C. for 5 minutes.
# The cells are collected from the perfusate by centrifugation at 800 rpm and harvested in culture flasks T-75, pretreated with human fibronectin. Cells are then harvested in the same medium, added with bovine hypothalamic growth factor (100 ng/ml). When the cells of the primary cell culture (the cells directly removed from ex-vivo umbilical vein) form a single layer of confluent cells (abdut 8,000,000 cells/flask), harvesting is stopped and the layers are washed and trypsinized. The cellular suspensions are transferred into wells of a culture plate having 24 wells, half of said wells being added with the same culture medium containing the drug at a 10^−4M concentration, and harvested in a thermostat at 37° C. at a constant moisture (90%), CO2=5%. When the drug is not soluble in the culture medium, it is formerly dissolved in a small amount of di-methylsulphoxide. The maximum amount of dimethylsulphoxide which can be added to the culture medium is 0.5%. Only the cells coming from these first subcultures are used for the tests with cumene hydroperoxide (CIP).
# Before starting the test, the cellular culture medium is removed and the cellular layers are carefully washed with a standard physiologic solution buffered with phosphate 0.1 M pH 7.0, at the temperature of 37° C. The content of each well is then incubated for one hour with a CIP suspension in the culture medium at a 5 mM concentration. Evaluation of the cellular damage (apoptosis) is carried out by determining the percent variation of the DNA fragmentation in the cultures containing the drug+CIP with respect to the controls treated with CIP only. […] The fluorescence of each sample was determined on 5 replicates. Statistic evaluation has been made with t Student test (p<0.01).
# [2] = Test 4: inhibition of radical production from DPPH; conditions: 100 μM (10^-4 M) in methanol, 30 minutes, absorbance 517 nm
# Method: Test 4 is a […] test which affords to establish whether the precursor of B or B1 (precursor of the X2 or X2a of the formulas (I) and (II) respectively), inhibits the production of radicals from DPPH (2,2-diphenyl-1-picryl-hydrazyl) (M. S. Nenseter et Al., Atheroscler. Thromb. 15, 1338-1344, 1995). 100 μM solutions in methanol of the tested substances are prepared, and an aliquot of each of said solutions is added to a DPPH solution in methanol […]. After having stored the solutions at room temperature away from light for 30 minutes, their absorbances are read at the wave length of 517 nm, together with that of the corresponding DPPH solution at the same concentration. The absorbance decrease with respect to that of the solution of DPPH at the same concentration of the test solutions is determined. The effectiveness of the tested compound in inhibiting formation of radicals by DPPH is expressed by the following formula: (1−AS/AC)X100 wherein AS and AC are respectively the absorbance values of the solution containing the test compound together with DPPH and of the solution containing only DPPH.
# The B or B1 precursor satisfies test 4 if their effectiveness in inhibiting radical production as above defined, is equal to or higher than 50% at the indicated concentration (10^−4 M).
# Test 4: inhibition of the radical production from DPPH of some substances to be used as precursors of B or B1 (ref. Formulas I and II of the invention)
# The method is based on a colorimetric test in which DPPH (2,2-diphenyl-1-picryl-hydrazyl) is used as the compound-forming radicals (M. S. Nenseter et Al., Atheroscler. Thromb. 15, 1338-1344, 1995).
# Solutions in methanol of the tested substances at a final concentration 100 μM are initially prepared. 0.1 ml of each of these solutions are added to aliquots of 1 ml of a methanol solution 0.1 M of DPPH and then the final volume is brought to 1.5 ml. After having stored the solutions at room temperature away from light for 30 minutes, the absorbance at the wave length of 517 nm is read. It is determined the absorbance decrease with respect to the absorbance of a solution containing the same concentration of DPPH.
# The efficacy of the test compound to inhibit the production of radicals, or antiradical activity, is expressed by the following formula: (1−AS/AC)X100 wherein AS and AC are, respectively, the absorbance values of the solution containing the test compound together+DPPH and of the solution containing only DPPH.
# The compound meets test 4 if radical production inhibition, as above defined, is equal to or higher than 50%.
# [3] = tested on: rats not treated or treated with NEM; assay: in vivo; conditions: rats not treated with NEM; single dose; route given with each value (p.o., i.c., s.c.)
# Method: as §1, §2, §3, §4, §5, §6, §7, §8
# [4] = Table II, drug 10^-4 M, CIP 5 mM for one hour, DNA fragmentation
Compound,"activity at 100 µM [1, 4] [%]","inhibition of apoptosis induced by CIP (in words, significance p<0.01) ([1]; drug 10^-4 M)",further results
"CCCCC(C)(O)C/C=C/[C@H]1[C@H](O)CC(=O)[C@@H]1CCCCCCC(=O)OC (mixture of isomers) [Misoprostol, misoprostol]",,,MTD at 24 h (in vivo): 0.5 mg/kg
"NCCCC(O)(P(=O)(O)O)P(=O)(O)O [Alendronate, sodic alendronate]",160,do not significantly inhibit apoptosis,
"Nc1c(Br)cc(Br)cc1CN[C@H]1CC[C@H](O)CC1 [Ambroxol, ambroxol]",,inhibit apoptosis,
"CC1(C)S[C@@H]2[C@H](NC(=O)[C@H](N)c3ccccc3)C(=O)N2[C@H]1C(=O)O [Ampicilline, ampicilline]",,do not significantly inhibit apoptosis,
"N[C@@H](CS)C(=O)O [Cisteine, cisteine]",,,% inhibition radicals from DPPH ([2]; 100 µM): 100%
"Cn1c(=O)c2c(ncn2CC(O)CO)n(C)c1=O (stereo not shown) [Diphylline, diphylline]",95,do not significantly inhibit apoptosis,
"COc1cc(/C=C/C(=O)O)ccc1O [Ferulic acid, ferulic acid]",,,% inhibition radicals from DPPH ([2]; 100 µM): 100%
"O=C(O)c1cc(O)ccc1O [Gentisic acid, gentisic acid]",,,% inhibition radicals from DPPH ([2]; 100 µM): 80%
"COc1ccc2c(c1)c(CC(=O)O)c(C)n2C(=O)c1ccc(Cl)cc1 [Indomethacin, indomethacin]",95,not significantly different with respect to that of the controls,"Apoptosis % with respect to the controls treated only with CIP ([1]; Table III, second apoptosis experiment (Example F6), CIP-induced DNA fragmentation): 95%; inhibition of apoptosis induced by CIP (in words, significance p<0.01) ([1]; drug 10^-4 M, listed as indomethacin): do not significantly inhibit apoptosis; maximum tolerated dose (dose (mg/Kg)/admin. route) [3]: 7.5 mg/kg"
"Nc1ccc(O)c(C(=O)O)c1 [Mesalamine, mesalamine]",74,inhibit apoptosis; also recorded: inhibits the apoptosis induced by CIP,MTD at 24 h (in vivo): 750 mg/kg
CC(=O)N[C@H](CS)C(=O)O [N-acetylcisteine],,,"% inhibition radicals from DPPH ([2]; listed as N-acetylcysteine, 100 µM): 100%"
"NC(=O)c1cccnc1 [Nicotinamide, nicotinamide]",98,do not significantly inhibit apoptosis,
"COc1ccc2[nH]c([S+]([O-])Cc3ncc(C)c(OC)c3C)nc2c1 (stereo not shown) [Omeprazol, omeprazol]",90,do not significantly inhibit apoptosis,maximum tolerated dose (dose (mg/Kg)/admin. route) [3]: 30/s.c. mg/Kg
"CC(=O)Nc1ccc(O)cc1 [Paracetamol, paracetamol]",120,do not significantly inhibit apoptosis; also recorded: not significantly different with respect to that of the controls,
"CC(C)(S)[C@@H](N)C(=O)O [Penicillamine, penicillamine]",,,% inhibition radicals from DPPH [2]: 100%
"CC(C)(C)NCC(O)c1ccc(O)c(CO)c1 (stereo not shown) [Salbutamol, salbutamol]",90,do not significantly inhibit apoptosis,
"CCC(C)(C)C(=O)O[C@H]1C[C@@H](C)C=C2C=C[C@H](C)C(CCC3CC(O)CC(=O)O3)[C@H]21 (stereo partly shown) [Simvastatine, simvastatine]",72,,
"Nc1c2c(nc3ccccc13)CCCC2 [Tacrine, tacrine]",90,do not significantly inhibit apoptosis,maximum tolerated dose (dose (mg/Kg)/admin. route) [3]: 1/s.c. mg/Kg
aciclovir,,do not significantly inhibit apoptosis,"Apoptosis % with respect to the controls treated only with CIP [1, 4]: 95%"
cetirizine,,do not significantly inhibit apoptosis,"Apoptosis % with respect to the controls treated only with CIP [1, 4]: 115%"
clopidogrel,,do not significantly inhibit apoptosis,"Apoptosis % with respect to the controls treated only with CIP [1, 4]: 110%"
enalapril,,do not significantly inhibit apoptosis,
